Data published in PubChem BioAssay AID248 (DTP/NCI, 2004).
Where “and” joins values, the source holds several entries; their conditions need not be identical. Equal entries are not always repeated. Inconclusive results and toxic doses are left out.

Tested on: L1210 leukemia ip in BDF1 mice, survival T/C
Experiment: NCI In Vivo Anticancer Drug Screen. Data for tumor model L1210 Leukemia (intraperitoneal) in B6D2F1 (BDF1) mice
Details: higher = longer survival
Summary of the method: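 Tumor was transplanted into mice, which were then dosed with test compound or vehicle alone. Survival was recorded for each group, and the treated figure was expressed relative to the control figure.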

`COc1cc2c(c(OC)c1OC)-c1ccc(OC)c(=O)cc1[C@@H](NC(C)=O)CC2` was tested, and the T/C (endpoint: mean survival time, dose: 0.01 mg/kg/injection, schedule: Q01DX010 (ip), vehicle: saline) was 96 % of control and 97 % of control, the T/C (endpoint: mean survival time, dose: 0.02 mg/kg/injection, schedule: Q01DX010 (ip), vehicle: saline) was 93 % of control and 103 % of control and the T/C (endpoint: mean survival time, dose: 0.04 mg/kg/injection, schedule: Q01DX010 (ip), vehicle: saline) was 102 % of control and 103 % of control. For the same molecule, the T/C (endpoint: mean survival time, dose: 0.06 mg/kg/injection, schedule: Q01DX015 (ip), vehicle: saline) was 98 % of control, the T/C (endpoint: mean survival time, dose: 0.08 mg/kg/injection, schedule: Q01DX010 (ip), vehicle: saline) was 102 % of control and 115 % of control and the T/C (endpoint: mean survival time, dose: 0.09 mg/kg/injection, schedule: Q01DX015 (ip), vehicle: saline) was 100 % of control. For the same molecule, the T/C (endpoint: mean survival time, dose: 0.09 mg/kg/injection, schedule: Q02DX008 (ip), vehicle: saline) was 97 % of control, the T/C (endpoint: mean survival time, dose: 0.1 mg/kg/injection, schedule: Q## X032 (ip), vehicle: saline) was 98 % of control and the T/C (endpoint: mean survival time, dose: 0.13 mg/kg/injection, schedule: Q01DX009 (ip), vehicle: saline) was 110 % of control. For the same molecule, the T/C (endpoint: mean survival time, dose: 0.13 mg/kg/injection, schedule: Q01DX015 (ip), vehicle: saline) was 104 % of control, the T/C (endpoint: mean survival time, dose: 0.13 mg/kg/injection, schedule: Q02DX008 (ip), vehicle: saline) was 97 % of control and the T/C (endpoint: mean survival time, dose: 0.16 mg/kg/injection, schedule: Q## X032 (ip), vehicle: saline) was 97 % of control. For the same molecule, the T/C (endpoint: mean survival time, dose: 0.2 mg/kg/injection, schedule: Q01DX015 (ip), vehicle: saline) was 113 % of control, the T/C (endpoint: mean survival time, dose: 0.2 mg/kg/injection, schedule: Q02DX008 (ip), vehicle: saline) was 103 % of control and the T/C (endpoint: mean survival time, dose: 0.24 mg/kg/injection, schedule: Q## X032 (ip), vehicle: saline) was 100 % of control. The T/C (endpoint: mean survival time, dose: 0.25 mg/kg/injection, schedule: Q01DX005 (oral), vehicle: saline) was 102 % of control, the T/C (endpoint: mean survival time, dose: 0.25 mg/kg/injection, schedule: Q01DX009 (ip), vehicle: saline) was 113 % of control and the T/C (endpoint: mean survival time, dose: 0.25 mg/kg/injection, schedule: Q04DX003 (ip), vehicle: saline) was 121 % of control. For the same molecule, the T/C (endpoint: mean survival time, dose: 0.3 mg/kg/injection, schedule: Q01DX015 (ip), vehicle: saline) was 117 % of control, the T/C (endpoint: mean survival time, dose: 0.3 mg/kg/injection, schedule: Q02DX008 (ip), vehicle: saline) was 106 % of control and the T/C (endpoint: mean survival time, dose: 0.36 mg/kg/injection, schedule: Q## X032 (ip), vehicle: saline) was 102 % of control. For the same molecule, the T/C (endpoint: mean survival time, dose: 0.45 mg/kg/injection, schedule: Q02DX008 (ip), vehicle: saline) was 120 % of control, the T/C (endpoint: mean survival time, dose: 0.5 mg/kg/injection, schedule: Q01DX001 (iv), vehicle: saline) was 93 % of control and the T/C (endpoint: mean survival time, dose: 0.5 mg/kg/injection, schedule: Q01DX005 (oral), vehicle: saline) was 101 % of control. For the same molecule, the T/C (endpoint: mean survival time, dose: 0.5 mg/kg/injection, schedule: Q01DX009 (ip), vehicle: saline) was 108 % of control, the T/C (endpoint: mean survival time, dose: 0.5 mg/kg/injection, schedule: Q04DX003 (ip), vehicle: saline) was 116 % of control and the T/C (endpoint: mean survival time, dose: 0.5 mg/kg/injection, schedule: Q## X032 (ip), vehicle: saline) was 105 % of control. The T/C (endpoint: mean survival time, dose: 0.54 mg/kg/injection, schedule: Q04DX004 (ip), vehicle: saline) was 112 % of control, the T/C (endpoint: mean survival time, dose: 0.54 mg/kg/injection, schedule: Q## X032 (ip), vehicle: saline) was 105 % of control and the T/C (endpoint: mean survival time, dose: 0.6 mg/kg/injection, schedule: Q## X004 (ip), vehicle: saline) was 112 % of control. The T/C (endpoint: mean survival time, dose: 0.8 mg/kg/injection, schedule: Q04DX004 (ip), vehicle: saline) was 114 % of control, the T/C (endpoint: mean survival time, dose: 0.8 mg/kg/injection, schedule: Q## X032 (ip), vehicle: saline) was 114 % of control and the T/C (endpoint: mean survival time, dose: 0.9 mg/kg/injection, schedule: Q## X004 (ip), vehicle: saline) was 114 % of control. For the same molecule, the T/C (endpoint: mean survival time, dose: 1.0 mg/kg/injection, schedule: Q01DX001 (iv), vehicle: saline) was 97 % of control, the T/C (endpoint: mean survival time, dose: 1.0 mg/kg/injection, schedule: Q01DX005 (oral), vehicle: saline) was 100 % of control and the T/C (endpoint: mean survival time, dose: 1.0 mg/kg/injection, schedule: Q01DX009 (ip), vehicle: saline) was 122 % of control. For the same molecule, the T/C (endpoint: mean survival time, dose: 1.0 mg/kg/injection, schedule: Q04DX003 (ip), vehicle: saline) was 104 % of control, the T/C (endpoint: mean survival time, dose: 1.2 mg/kg/injection, schedule: Q04DX004 (ip), vehicle: saline) was 116 % of control and the T/C (endpoint: mean survival time, dose: 1.25 mg/kg/injection, schedule: Q01DX001 (ip), vehicle: saline) was 101 % of control and 114 % of control and 123 % of control. For the same molecule, the T/C (endpoint: mean survival time, dose: 1.3 mg/kg/injection, schedule: Q## X004 (ip), vehicle: saline) was 121 % of control, the T/C (endpoint: mean survival time, dose: 1.6 mg/kg/injection, schedule: Q## X032 (ip), vehicle: saline) was 124 % of control and the T/C (endpoint: mean survival time, dose: 2.0 mg/kg/injection, schedule: Q01DX001 (iv), vehicle: saline) was 107 % of control. For the same molecule, the T/C (endpoint: mean survival time, dose: 2.0 mg/kg/injection, schedule: Q01DX001 (oral), vehicle: saline) was 91 % of control, the T/C (endpoint: mean survival time, dose: 2.0 mg/kg/injection, schedule: Q01DX005 (oral), vehicle: saline) was 92 % of control and the T/C (endpoint: mean survival time, dose: 2.0 mg/kg/injection, schedule: Q## X004 (ip), vehicle: saline) was 156 % of control. The T/C (endpoint: mean survival time, dose: 2.5 mg/kg/injection, schedule: Q01DX001 (ip), vehicle: saline) was 118 % of control and 124 % of control, the T/C (endpoint: mean survival time, dose: 3.6 mg/kg/injection, schedule: Q## X032 (ip), vehicle: saline) was 102 % of control and the T/C (endpoint: mean survival time, dose: 4.0 mg/kg/injection, schedule: Q01DX001 (iv), vehicle: saline) was 97 % of control. The T/C (endpoint: mean survival time, dose: 4.0 mg/kg/injection, schedule: Q01DX001 (oral), vehicle: saline) was 100 % of control, the T/C (endpoint: mean survival time, dose: 4.0 mg/kg/injection, schedule: Q08DX002 (ip), vehicle: saline) was 108 % of control and the T/C (endpoint: mean survival time, dose: 5.0 mg/kg/injection, schedule: Q01DX001 (ip), vehicle: saline) was 94 % of control and 118 % of control. For the same molecule, the T/C (endpoint: mean survival time, dose: 8.0 mg/kg/injection, schedule: Q01DX001 (oral), vehicle: saline) was 92 % of control, the T/C (endpoint: mean survival time, dose: 31.2 micrograms/kg/injection, schedule: Q03HX024 (ip), vehicle: saline) was 97 % of control and the T/C (endpoint: mean survival time, dose: 62.5 micrograms/kg/injection, schedule: Q01DX005 (iv), vehicle: saline) was 100 % of control. For the same molecule, the T/C (endpoint: mean survival time, dose: 62.5 micrograms/kg/injection, schedule: Q01DX009 (ip), vehicle: saline) was 101 % of control, the T/C (endpoint: mean survival time, dose: 62.5 micrograms/kg/injection, schedule: Q03HX016 (ip), vehicle: saline) was 102 % of control and the T/C (endpoint: mean survival time, dose: 62.5 micrograms/kg/injection, schedule: Q03HX024 (ip), vehicle: saline) was 104 % of control. For the same molecule, the T/C (endpoint: mean survival time, dose: 125.0 micrograms/kg/injection, schedule: Q01DX005 (iv), vehicle: saline) was 98 % of control, the T/C (endpoint: mean survival time, dose: 125.0 micrograms/kg/injection, schedule: Q01DX009 (ip), vehicle: saline) was 115 % of control and the T/C (endpoint: mean survival time, dose: 125.0 micrograms/kg/injection, schedule: Q03HX008 (ip), vehicle: saline) was 123 % of control. For the same molecule, the T/C (endpoint: mean survival time, dose: 125.0 micrograms/kg/injection, schedule: Q03HX016 (ip), vehicle: saline) was 107 % of control, the T/C (endpoint: mean survival time, dose: 125.0 micrograms/kg/injection, schedule: Q03HX024 (ip), vehicle: saline) was 109 % of control and the T/C (endpoint: mean survival time, dose: 250.0 micrograms/kg/injection, schedule: Q01DX005 (iv), vehicle: saline) was 98 % of control. The T/C (endpoint: mean survival time, dose: 250.0 micrograms/kg/injection, schedule: Q03HX016 (ip), vehicle: saline) was 121 % of control, the T/C (endpoint: mean survival time, dose: 250.0 micrograms/kg/injection, schedule: Q03HX024 (ip), vehicle: saline) was 96 % of control and the T/C (endpoint: mean survival time, dose: 500.0 micrograms/kg/injection, schedule: Q01DX005 (iv), vehicle: saline) was 100 % of control. The T/C (endpoint: mean survival time, dose: 1000.0 micrograms/kg/injection, schedule: Q01DX005 (iv), vehicle: saline) was 107 % of control, the T/C (endpoint: mean survival time, dose: 1000.0 micrograms/kg/injection, schedule: Q01DX009 (ip), vehicle: saline) was 87 % of control and the T/C (endpoint: median survival time, dose: 0.02 mg/kg/injection, schedule: Q01DX009 (ip), vehicle: saline) was 93 % of control and 100 % of control. The T/C (endpoint: median survival time, dose: 0.04 mg/kg/injection, schedule: Q01DX009 (ip), vehicle: saline) was 100 % of control, the T/C (endpoint: median survival time, dose: 0.08 mg/kg/injection, schedule: Q01DX009 (ip), vehicle: saline) was 106 % of control and 111 % of control and the T/C (endpoint: median survival time, dose: 0.16 mg/kg/injection, schedule: Q01DX009 (ip), vehicle: saline) was 112 % of control.
`CN1CC2([N+](=O)[O-])C=CCC([N+](=O)[O-])(C1)C2` (stereo unspecified) was tested, and the T/C (endpoint: mean survival time, dose: 25.0 mg/kg/injection, schedule: Q01DX009 (ip), vehicle: water) was 98 % of control, the T/C (endpoint: mean survival time, dose: 50.0 mg/kg/injection, schedule: Q01DX009 (ip), vehicle: water) was 102 % of control and the T/C (endpoint: mean survival time, dose: 100.0 mg/kg/injection, schedule: Q01DX009 (ip), vehicle: water) was 104 % of control. The T/C (endpoint: mean survival time, dose: 200.0 mg/kg/injection, schedule: Q01DX009 (ip), vehicle: water) was 103 % of control.
